Source: PMC13308190, “Endothelial progenitor cell susceptibility to DNA damaging and DDR-modulating compounds determines endothelial differentiation accuracy” (Stem Cell Research & Therapy, 2026)

Experiments:
Type in all cases: cell-based, mouse
mESC [1] = experiment: RT-qPCR mRNA expression; settings: for Cdkn1a mRNA / Cdkn2a mRNA / Glb1 mRNA / Il6 mRNA / Il8 mRNA / Tp53 mRNA: Fig 7A
Experimental: Total RNA was purified using the RNeasy Mini Kit (Qiagen, Hilden, Germany). Reverse transcriptase (RT) reaction was performed with the HighCapacity cDNA Reverse Transcription Kit (Applied Biosystems, Darmstadt, Germany) using 900–2000 ng of RNA. Quantitative RT-qPCR analysis was performed using following conditions: (1) 95 °C–10 min; (2) 45 amplification cycles with 95 °C–15 s, 55 °C–15 s, and 72 °C–17 s; (3) 95 °C–1 min, 55 °C–1 min, 65 °C–5 s. If not stated otherwise, analyses were performed in technical triplicates using pooled samples from two independent experiments (each performed with biological duplicates) by use of a CFX96 cycler (BioRad) and the SensiMix SYBR Kit (Bioline, London, UK). The primers used for mRNA expression analyses are listed in Supplementary Table 1. To ensure the specificity of the amplification product, melting curves were recorded at the end of the run. mRNA expression levels were normalized to β-Actin and Gapdh. Relative mRNA expression in mESC or corresponding untreated controls was set to 1.0. Only changes in gene expression of ≤ 0.5- and ≥ 2-fold were considered as biologically relevant. Fold-changes in gene expression are summarized in Supplementary Table 2.

[2] = tested on: EC d4 (endothelial progenitor cells); experiment: Western blot protein expression (densitometry); settings: EC d4 48 h; for CHK1 protein / RAD51 protein / gH2AX protein / p-CHK2 protein / p-KAP1 protein / p-RPA32 protein / p-p53 protein: Fig 5D
Experimental: (§1) Total protein cell extracts were obtained upon sonication in RIPA buffer (EpiShearTM Probe sonicator, Active Motif [La Hulpe, Belgium]). Protein concentrations were determined using the DC Protein Assay (BioRad [Munich, Germany]). Extracts were supplemented with Roti®-Load buffer (Carl Roth GmbH [Karlsruhe, Germany]) followed by heating (95 °C for 5 min). 20 µg of protein was separated by SDS-PAGE and transferred onto nitrocellulose membrane. After blocking (5% non-fat milk in TBS/0.1% Tween 20 or 5% BSA in TBS/0.1% Tween 20) (1 h, RT) membrane was incubated with primary antibodies (1:500–5000; overnight, 4 °C). After washing with TBS/0.1% Tween 20, peroxidase-conjugated secondary antibody (1:2000) was added (2 h, RT) and bands were visualized using ChemiDoxTM Touch imaging system (BioRad, Munich, Germany).

[3] = tested on: EC d6 (endothelial-like cells); experiment: Western blot protein expression (densitometry); settings: EC d6 24 h; for CHK1 protein / RAD51 protein / gH2AX protein / p-CHK2 protein / p-KAP1 protein / p-RPA32 protein / p-p53 protein: Fig 5D
Experimental: as §1

mESC [4] = experiment: Western blot protein expression (densitometry); settings: mESC 24 h
Experimental: as §1

EC d4 [5] = experiment: EdU incorporation (S-phase activity); settings: EC d4 48 h
Experimental: S-phase activity of cells was monitored by measuring EdU incorporation using the EdU-Click 488 assay according to the manufacturer’s protocol. Briefly, cells were pulse-treated with 5-ethynyl-2′-deoxyuridine (EdU) for 3 h. Alexa Fluor 488-conjugated reaction cocktail was added (30 min, RT) and nuclei were counterstained with DAPI. The percentage of EdU-positive area/DAPI-positive area was calculated by fluorescence microscopy (Olympus BX43, 20x objective).

EC d4 [6] = experiment: ZO1 tight junction immunofluorescence; settings: EC d4 treated 48 h
[7] = mESC + 10 µM 24 h + 24 h post incubation
[8] = mESC + 20 µM 24 h + 24 h post incubation
[9] = concentration 1 (Dox 1/B02 1/EST 1)
[10] = concentration 2 (Dox 2/B02 2/EST 2)
[11] = Fig 5D, concentration 1 (Dox 1/B02 1/EST 1)
[12] = Fig 5D, concentration 2 (Dox 2/B02 2/EST 2)

O=c1c2ccccc2nc(/C=C/c2cccnc2)n1Cc1ccccc1 [B02]
Cdkn1a mRNA (mESC [1]; [7]): 0.89 Fold of untreated control
Cdkn2a mRNA (mESC [1]; [7]): 0.97 Fold of untreated control
Glb1 mRNA (mESC [1]; [7]): 1.06 Fold of untreated control
Il6 mRNA (mESC [1]; [7]): 0.98 Fold of untreated control
Il8 mRNA (mESC [1]; [7]): 0.76 Fold of untreated control
Tp53 mRNA (mESC [1]; [7]): 1.09 Fold of untreated control
Cdkn1a mRNA (mESC [1]; [8]): 0.94 Fold of untreated control
Cdkn2a mRNA (mESC [1]; [8]): 0.89 Fold of untreated control
Glb1 mRNA (mESC [1]; [8]): 1.06 Fold of untreated control
Il6 mRNA (mESC [1]; [8]): 1.35 Fold of untreated control
Il8 mRNA (mESC [1]; [8]): 0.93 Fold of untreated control
Tp53 mRNA (mESC [1]; [8]): 0.98 Fold of untreated control
Brca1 mRNA (mESC [1]; mESC + 20 µM 24 h, Fig 5C): 0.95 Fold of mESC
Chk1 mRNA (mESC [1]; mESC + 20 µM 24 h, Fig 5C): 1.33 Fold of mESC
Rad51 mRNA (mESC [1]; mESC + 20 µM 24 h, Fig 5C): 0.90 Fold of mESC
Pgc1a mRNA (mESC [1]; mESC + 20 µM 24 h, Fig 6D): 2.40 Fold of untreated control
H3ac protein ([2]; Fig 1D): 0.0 Fold of mESC
H4ac protein ([2]; Fig 1D): 0.0 Fold of mESC
aTubac (acetylated α-Tubulin) protein ([2]; Fig 1D): 0.6 Fold of mESC
CHK1 protein [2, 9]: 0.4 Fold of mESC
RAD51 protein [2, 9]: 0.7 Fold of mESC
gH2AX protein [2, 9]: 1.8 Fold of mESC
p-CHK2 protein [2, 9]: 0.2 Fold of mESC
p-KAP1 protein [2, 9]: 0.0 Fold of mESC
p-RPA32 protein [2, 9]: 0.3 Fold of mESC
p-p53 protein [2, 9]: 0.6 Fold of mESC
CHK1 protein [2, 10]: 0.2 Fold of mESC
RAD51 protein [2, 10]: 0.3 Fold of mESC
gH2AX protein [2, 10]: 0.0 Fold of mESC
p-CHK2 protein [2, 10]: < 0.1 Fold of mESC
p-KAP1 protein [2, 10]: 0.0 Fold of mESC
p-RPA32 protein [2, 10]: 0.4 Fold of mESC
p-p53 protein [2, 10]: 0.3 Fold of mESC
AMPKa protein ([2]; Fig 6E): 0.1 Fold of mESC
GSK3b protein ([2]; Fig 6E): 1.9 Fold of mESC
p-p70SK protein ([2]; Fig 6E): 1.4 Fold of mESC
H3ac protein ([3]; Fig 1D): 0.1 Fold of mESC
H4ac protein ([3]; Fig 1D): 0.0 Fold of mESC
aTubac (acetylated α-Tubulin) protein ([3]; Fig 1D): 0.3 Fold of mESC
CHK1 protein [3, 9]: 0.7 Fold of mESC
RAD51 protein [3, 9]: 0.7 Fold of mESC
gH2AX protein [3, 9]: 1.2 Fold of mESC
p-CHK2 protein [3, 9]: 0.1 Fold of mESC
p-KAP1 protein [3, 9]: 0.0 Fold of mESC
p-RPA32 protein [3, 9]: 0.1 Fold of mESC
p-p53 protein [3, 9]: 0.4 Fold of mESC
CHK1 protein [3, 10]: 0.1 Fold of mESC
RAD51 protein [3, 10]: < 0.1 Fold of mESC
gH2AX protein [3, 10]: 0.1 Fold of mESC
p-CHK2 protein [3, 10]: 0.0 Fold of mESC
p-KAP1 protein [3, 10]: 0.0 Fold of mESC
p-RPA32 protein [3, 10]: < 0.1 Fold of mESC
p-p53 protein [3, 10]: 0.2 Fold of mESC
AMPKa protein ([3]; Fig 6E): 0.1 Fold of mESC
GSK3b protein ([3]; Fig 6E): 1.8 Fold of mESC
p-p70SK protein ([3]; Fig 6E): 1.1 Fold of mESC
H3ac protein (mESC [4]; Fig 1D): 1.8 Fold of mESC
H4ac protein (mESC [4]; Fig 1D): 232.9 Fold of mESC
aTubac (acetylated α-Tubulin) protein (mESC [4]; Fig 1D): 0.5 Fold of mESC
CHK1 protein (mESC [4]; Fig 4H, Eto, Dox 1, B02, EST): 1.4 Fold of mESC
p-ATR protein (mESC [4]; Fig 4H, Eto, Dox 1, B02, EST): 2.7 Fold of mESC
p-CHK1 protein (mESC [4]; Fig 4H, Eto, Dox 1, B02, EST): 0.8 Fold of mESC
p-RPA32 protein (mESC [4]; Fig 4H, Eto, Dox 1, B02, EST): 2.0 Fold of mESC
p-p53 protein (mESC [4]; Fig 4H, Eto, Dox 1, B02, EST): 1.2 Fold of mESC
CHK1 protein (mESC [4]; [11]): 0.8 Fold of mESC
RAD51 protein (mESC [4]; [11]): 1.9 Fold of mESC
gH2AX protein (mESC [4]; [11]): < 0.1 Fold of mESC
p-CHK2 protein (mESC [4]; [11]): 0.9 Fold of mESC
p-KAP1 protein (mESC [4]; [11]): 1.30 Fold of mESC
p-RPA32 protein (mESC [4]; [11]): 0.8 Fold of mESC
p-p53 protein (mESC [4]; [11]): 0.9 Fold of mESC
CHK1 protein (mESC [4]; [12]): 1.0 Fold of mESC
RAD51 protein (mESC [4]; [12]): 2.3 Fold of mESC
gH2AX protein (mESC [4]; [12]): 0.5 Fold of mESC
p-CHK2 protein (mESC [4]; [12]): 1.1 Fold of mESC
p-KAP1 protein (mESC [4]; [12]): 1.26 Fold of mESC
p-RPA32 protein (mESC [4]; [12]): 1.3 Fold of mESC
p-p53 protein (mESC [4]; [12]): 1.2 Fold of mESC
AMPKa protein (mESC [4]; Fig 6E): 0.2 Fold of mESC
GSK3b protein (mESC [4]; Fig 6E): 1.3 Fold of mESC
p-p70SK protein (mESC [4]; Fig 6E): 1.2 Fold of mESC
S-phase activity (EdU-positive cells) (EC d4 [5]): decrease in S-phase activity
ZO1 containing tight junctions in EC d6 differentiated from treated EC d4 (EC d4 [6]): did not affect
